The text below walks through data of PubChem BioAssay AID220 (DTP/NCI, 2004).

For the assay, the system named is CD8F1 mice, subcutaneous mammary adenocarcinoma, T/C%. Briefly: NCI In Vivo Anticancer Drug Screen. Data for tumor model Mammary Adenocarcinoma CD8F1 (subcutaneous) in CD8F1. The note with it: higher = larger tumour. The method, boiled down:
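Compound-treated versus vehicle-treated mice with transplantable tumors; survival or tumor size compared as T/C.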

[1] abbreviates: endpoint: median tumor weight change, dose: 125.0 mg/kg/injection, schedule: Q01DX001 (ip), vehicle: saline with Tween-80.
[2] abbreviates: endpoint: median tumor weight change, dose: 250.0 mg/kg/injection, schedule: Q01DX001 (ip), vehicle: saline with Tween-80.
Where [3] appears, read: endpoint: median tumor weight change, dose: 62.5 mg/kg/injection, schedule: Q01DX001 (ip), vehicle: saline with Tween-80.

“And” between values parts separate entries of the source, which are not always exact repeats. Equal values may be shown once. Inconclusive results are not listed.

Regarding `Nc1nc([Se])c2ncn(C3OC(CO)C(O)C3O)c2n1` (stereo not given), the T/C (endpoint: median tumor weight (est.), dose: 2.0 mg/kg/injection, schedule: Q07DX005 (ip), vehicle: saline) was 92 % of control; the T/C (endpoint: median tumor weight (est.), dose: 4.0 mg/kg/injection, schedule: Q07DX005 (ip), vehicle: saline) is 54 % of control; the T/C (endpoint: median tumor weight (est.), dose: 8.0 mg/kg/injection, schedule: Q07DX005 (ip), vehicle: saline) is 68 % of control; the T/C (endpoint: median tumor weight (est.), dose: 8.0 mg/kg/injection, schedule: Q07DX005 (ip), vehicle: suspension in saline) was 24 % of control; the T/C (endpoint: median tumor weight (est.), dose: 16.0 mg/kg/injection, schedule: Q07DX005 (ip), vehicle: saline) is 70 % of control; the T/C (endpoint: median tumor weight (est.), dose: 16.0 mg/kg/injection, schedule: Q07DX005 (ip), vehicle: suspension in saline) was 20 % of control. Further, the T/C by setting is: (endpoint: median tumor weight (est.), dose: 32.0 mg/kg/injection, schedule: Q07DX005 (ip), vehicle: saline) 30 % of control; (endpoint: median tumor weight (est.), dose: 32.0 mg/kg/injection, schedule: Q07DX005 (ip), vehicle: suspension in saline) 51 % of control; (endpoint: median tumor weight (est.), dose: 64.0 mg/kg/injection, schedule: Q07DX005 (ip), vehicle: saline) 27 % of control; (endpoint: median tumor weight (est.), dose: 64.0 mg/kg/injection, schedule: Q07DX005 (ip), vehicle: suspension in saline) 12 % of control.
Take `Cc1cc(NCCN(C(C)C)C(C)C)nc(/N=C(\N)Nc2ccc(Cl)c(C(F)(F)F)c2)n1`: the T/C is 39 % of control and 45 % of control (endpoint: median tumor weight change, dose: 12.5 mg/kg/injection, schedule: Q01DX001 (ip), vehicle: Klucel (hydroxypropylcellulose) (HPC)); 27 % of control and 39 % of control (endpoint: median tumor weight change, dose: 50.0 mg/kg/injection, schedule: Q01DX001 (ip), vehicle: Klucel (hydroxypropylcellulose) (HPC)); 50 % of control and 74 % of control (endpoint: median tumor weight change, dose: 100.0 mg/kg/injection, schedule: Q01DX001 (ip), vehicle: Klucel (hydroxypropylcellulose) (HPC)).
For the compound `Cc1c(N)nc(C(CC(N)=O)NCC(N)C(N)=O)nc1C(=O)NC(C(=O)NC(C)C(O)C(C)C(=O)NC(C(=O)NCCc1nc(-c2nc(C(=O)NCCCNCCCc3ccccn3)cs2)cs1)C(C)O)C(OC1OC(CO)C(O)C(O)C1OC1OC(CO)C(O)C(OC(N)=O)C1O)c1cnc[nH]1` (stereo not given), the T/C is, setting by setting: (endpoint: median tumor weight (est.), dose: 0.37 mg/kg/injection, schedule: Q07DX005 (ip), vehicle: water) 45 % of control; (endpoint: median tumor weight (est.), dose: 0.75 mg/kg/injection, schedule: Q07DX005 (ip), vehicle: water) 76 % of control; (endpoint: median tumor weight (est.), dose: 1.5 mg/kg/injection, schedule: Q07DX005 (ip), vehicle: water) 104 % of control; (endpoint: median tumor weight (est.), dose: 3.2 mg/kg/injection, schedule: Q07DX005 (ip), vehicle: water) 101 % of control; (endpoint: median tumor weight (est.), dose: 3.5 mg/kg/injection, schedule: Q07DX005 (ip), vehicle: water) 166 % of control; (endpoint: median tumor weight (est.), dose: 6.0 mg/kg/injection, schedule: Q07DX005 (ip), vehicle: water) 100 % of control. Further, the T/C (endpoint: median tumor weight (est.), dose: 6.4 mg/kg/injection, schedule: Q07DX005 (ip), vehicle: water) is 52 % of control; the T/C (endpoint: median tumor weight (est.), dose: 7.0 mg/kg/injection, schedule: Q07DX005 (ip), vehicle: water) is 104 % of control; the T/C (endpoint: median tumor weight (est.), dose: 12.8 mg/kg/injection, schedule: Q07DX005 (ip), vehicle: water) was 12 % of control; the T/C (endpoint: median tumor weight (est.), dose: 14.0 mg/kg/injection, schedule: Q07DX005 (ip), vehicle: water) is 53 % of control; the T/C (endpoint: median tumor weight (est.), dose: 28.0 mg/kg/injection, schedule: Q07DX005 (ip), vehicle: water) is 3 % of control.
For `CCCCCCOC(CN(C)C)C(Cl)(Cl)Cl` (stereo not given), the T/C reads like this: (endpoint: median tumor weight change, dose: 100.0 mg/kg/injection, schedule: Q01DX001 (ip), vehicle: saline with Tween-80) 53 % of control; under setting [1], 173 % of control; (endpoint: median tumor weight change, dose: 200.0 mg/kg/injection, schedule: Q01DX001 (ip), vehicle: saline with Tween-80) 68 % of control; under setting [2], 81 % of control; (endpoint: median tumor weight change, dose: 400.0 mg/kg/injection, schedule: Q01DX001 (ip), vehicle: saline with Tween-80) 93 % of control; (endpoint: median tumor weight change, dose: 500.0 mg/kg/injection, schedule: Q01DX001 (ip), vehicle: saline with Tween-80) 72 % of control. Besides, where the note is “endpoint: median tumor weight change, dose: 1000.0 mg/kg/injection, schedule: Q01DX001 (ip), vehicle: saline with Tween-80”, the T/C was 79 % of control.
Consider `C[CH2][Pb]([CH2]C)([CH2]C)[O]C(=O)COc1ccccc1`, for which the T/C is 112 % of control (endpoint: mean tumor weight, dose: 0.75 mg/kg/injection, schedule: Q01DX009 (ip), vehicle: saline); 398 % of control (endpoint: mean tumor weight, dose: 0.75 mg/kg/injection, schedule: Q07DX009 (ip), vehicle: saline); 57 % of control (endpoint: mean tumor weight, dose: 1.5 mg/kg/injection, schedule: Q01DX009 (ip), vehicle: saline); 192 % of control (endpoint: mean tumor weight, dose: 1.5 mg/kg/injection, schedule: Q07DX009 (ip), vehicle: saline); 73 % of control (endpoint: mean tumor weight, dose: 3.0 mg/kg/injection, schedule: Q01DX009 (ip), vehicle: saline); 172 % of control (endpoint: mean tumor weight, dose: 3.0 mg/kg/injection, schedule: Q07DX009 (ip), vehicle: saline). The T/C (endpoint: mean tumor weight, dose: 6.0 mg/kg/injection, schedule: Q07DX009 (ip), vehicle: saline) was 165 % of control.
For the compound `Nc1nc(=S)c2ncn(C3CC(O)C(CO)O3)c2[nH]1` (stereo not given), the T/C (endpoint: median tumor weight (est.), dose: 10.0 mg/kg/injection, schedule: Q07DX005 (ip), vehicle: saline with Tween-80) was 17 % of control and 37 % of control; the T/C (endpoint: median tumor weight (est.), dose: 12.5 mg/kg/injection, schedule: Q07DX005 (ip), vehicle: suspension in saline) was 81 % of control; the T/C (endpoint: median tumor weight (est.), dose: 20.0 mg/kg/injection, schedule: Q07DX005 (ip), vehicle: saline with Tween-80) was 9 % of control and 21 % of control; the T/C (endpoint: median tumor weight (est.), dose: 25.0 mg/kg/injection, schedule: Q07DX005 (ip), vehicle: suspension in saline) was 101 % of control; the T/C (endpoint: median tumor weight (est.), dose: 40.0 mg/kg/injection, schedule: Q07DX005 (ip), vehicle: saline with Tween-80) is 6 % of control and 7 % of control; the T/C (endpoint: median tumor weight (est.), dose: 50.0 mg/kg/injection, schedule: Q07DX005 (ip), vehicle: suspension in saline) was 72 % of control. Also, the T/C (endpoint: median tumor weight (est.), dose: 80.0 mg/kg/injection, schedule: Q07DX005 (ip), vehicle: saline with Tween-80) is 2 % of control and 5 % of control; the T/C (endpoint: median tumor weight (est.), dose: 200.0 mg/kg/injection, schedule: Q07DX005 (ip), vehicle: suspension in saline) was 62 % of control.
Regarding `Nc1ccc(C(OC(=O)c2cc3ccccc3c(Cc3c(O)c(C(=O)OC(c4ccc(N)cc4)(c4ccc(N)cc4)c4ccc(N)cc4)cc4ccccc34)c2O)(c2ccc(N)cc2)c2ccc(N)cc2)cc1`, the T/C runs as follows: (endpoint: median tumor weight change, dose: 6.25 mg/kg/injection, schedule: Q01DX001 (ip), vehicle: saline with Tween-80) 73 % of control; (endpoint: median tumor weight change, dose: 50.0 mg/kg/injection, schedule: Q01DX001 (ip), vehicle: saline with Tween-80) 97 % of control; under setting [3], 61 % of control.
Take `Nc1nc(N)c2c(ccc3c2ccn3Cc2cccc([N+](=O)[O-])c2)n1`: the T/C is 66 % of control (endpoint: median tumor weight change, dose: 7.75 mg/kg/injection, schedule: Q01DX001 (ip), vehicle: saline with Tween-80); 56 % of control (endpoint: median tumor weight change, dose: 8.0 mg/kg/injection, schedule: Q01DX001 (ip), vehicle: saline with Tween-80); 67 % of control (endpoint: median tumor weight change, dose: 16.0 mg/kg/injection, schedule: Q01DX001 (ip), vehicle: saline with Tween-80).
`O=C(O)C1CC(O)CN1` (stereo not given): the T/C (endpoint: median tumor weight change, dose: 125.0 mg/kg/injection, schedule: Q01DX001 (ip), vehicle: saline) is 71 % of control; the T/C (endpoint: median tumor weight change, dose: 250.0 mg/kg/injection, schedule: Q01DX001 (ip), vehicle: saline) is 64 % of control and 78 % of control; the T/C (endpoint: median tumor weight change, dose: 500.0 mg/kg/injection, schedule: Q01DX001 (ip), vehicle: saline) is 59 % of control and 69 % of control; the T/C (endpoint: median tumor weight change, dose: 1000.0 mg/kg/injection, schedule: Q01DX001 (ip), vehicle: saline) is 66 % of control and 70 % of control; the T/C (endpoint: median tumor weight change, dose: 2000.0 mg/kg/injection, schedule: Q01DX001 (ip), vehicle: saline) was 13 % of control and 15 % of control.
As for `C=CS(=O)(=O)c1ccccc1`, the T/C (endpoint: mean tumor weight, dose: 25.0 mg/kg/injection, schedule: Q07DX005 (ip), vehicle: saline with Tween-80) was 110 % of control; the T/C (endpoint: mean tumor weight, dose: 50.0 mg/kg/injection, schedule: Q07DX005 (ip), vehicle: saline with Tween-80) is 117 % of control; the T/C (endpoint: mean tumor weight, dose: 100.0 mg/kg/injection, schedule: Q07DX005 (ip), vehicle: saline with Tween-80) is 114 % of control; the T/C (endpoint: mean tumor weight, dose: 200.0 mg/kg/injection, schedule: Q07DX005 (ip), vehicle: saline with Tween-80) is 154 % of control.
Turning to `C/C=C/C=C1/OC(C)=C(C(C)=O)C1=O`, the T/C is 94 % of control and 104 % of control under setting [1]; 64 % of control under setting [2].
Take `C=C(C)C(=NC(C)(C)C)Nc1ccccc1`: the T/C under setting [3] was 92 % of control, the T/C under setting [1] was 60 % of control and the T/C under setting [2] is 96 % of control.
Turning to `C=C(C)[C@H]1CN[C@H](C(=O)O)[C@H]1CC(=O)O`, the T/C (endpoint: median tumor weight change, dose: 3.12 mg/kg/injection, schedule: Q01DX001 (ip), vehicle: saline) is 99 % of control; the T/C (endpoint: median tumor weight change, dose: 6.25 mg/kg/injection, schedule: Q01DX001 (ip), vehicle: saline) was 77 % of control; the T/C (endpoint: median tumor weight change, dose: 12.5 mg/kg/injection, schedule: Q01DX001 (ip), vehicle: saline) is 77 % of control; the T/C (endpoint: median tumor weight change, dose: 25.0 mg/kg/injection, schedule: Q01DX001 (ip), vehicle: saline) was 73 % of control.
